From patent US20040167033A1, “Herbicidal composition” (priority 2001, published 2004)

Tested on: maize
Test: Pre-emergence test (Example B2), greenhouse pots, phytotoxicity on maize
Type: in vivo
Protocol: The test plants are sown in pots under greenhouse conditions. A standard soil is used as cultivation substrate. At a pre-emergence stage, the herbicides, both on their own and in admixture with safener, are applied to the soil surface or to cultivated plants seed-dressed with safener. The rates of application depend on the optimum doses ascertained under field conditions or greenhouse conditions. The tests are evaluated after from 2 to 4 weeks (100% action=complete destruction, 0% action=no phytotoxic action). The mixtures used in this test show good results.

## CCc1cccc(C)c1N(C(=O)CCl)[C@@H](C)COC [S-metolachlor]
Table B2.1, S-metolachlor 1000 g/ha (EC 960), safener of formula II row prints 1000 g/ha
  Phytotoxicity on maize (%) 15 days after application: 7%
Table B2.1, S-metolachlor 2000 g/ha (EC 960), safener of formula II row prints 2000 g/ha
  Phytotoxicity on maize (%) 15 days after application: 20%
Table B2.1, S-metolachlor 4000 g/ha (EC 960), safener of formula II row prints 4000 g/ha
  Phytotoxicity on maize (%) 15 days after application: 40%
Table B2.1, S-metolachlor 6000 g/ha (EC 960), safener of formula II row prints 6000 g/ha, 100%=complete destruction
  Phytotoxicity on maize (%) 15 days after application: 53%
